Results as given in ChEMBL document CHEMBL4334450, “Green synthesis, biological evaluation, molecular docking studies and 3D-QSAR analysis of novel phenylalanine linked quinazoline-4(3H)-one-sulphonamide hybrid entities distorting the malarial reductase activity in folate pathway” (Bioorg Med Chem, 2019).
In brackets after ≈: the same amount, converted by molar mass.

Tests used:
Plasmodium falciparum [1] = assay: Antimalarial activity against Plasmodium falciparum FCR3 infected in human erythrocytes by Giemsa staining analysis; assay type: functional, organism-based
Dihydrofolate reductase = molecular target: T1, Dihydrofolate reductase (Bos taurus, UniProt P00376); assay: Inhibition of bovine liver DHFR using FH2 as substrate incubated for 2 mins followed by substrate addition
T1 sequence (P00376 whole entry): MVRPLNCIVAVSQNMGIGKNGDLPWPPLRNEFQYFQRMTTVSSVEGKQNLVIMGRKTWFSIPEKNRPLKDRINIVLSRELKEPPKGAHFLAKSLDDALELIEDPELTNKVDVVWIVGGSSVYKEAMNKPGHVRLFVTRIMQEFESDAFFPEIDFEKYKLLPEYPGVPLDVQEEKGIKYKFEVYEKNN

Plasmodium falciparum [2] = assay: Antiplasmodial activity against Plasmodium falciparum infected in human RBC assessed as reduction in parasite LDH activity by spectrophotometric assay; assay type: functional, organism-based
Plasmodium falciparum [3] = assay: Antiplasmodial activity against Plasmodium falciparum infected in human RBC […] by MTT assay; assay type: functional, organism-based
Erythrocyte = assay: Cytotoxicity against human RBC assessed as reduction in cell viability by MTT assay; assay type: cell-based
[4] = Therapeutic index, ratio of CC50 for human RBC to EC50 for Plasmodium falciparum infected in human RBC; assay type: toxicity; details: human red blood cells (RBC), read-out: Ratio CC50/EC50
Vero = assay: Cytotoxicity against African green monkey Vero cells assessed as reduction in cell viability incubated for 72 hrs by CellTiter 96 Non-radioactive Cell Proliferation Assay; assay type: cell-based; details: Chlorocebus sabaeus
bovine liver DHFR = assay: Therapeutic index, ratio of IC50 for African green monkey Vero cells to IC50 for bovine liver DHFR; assay type: toxicity; details: read-out: Ratio IC50

CC(=O)Nc1ccc(S(=O)(=O)NC(Cc2ccccc2)c2nc3ccccc3c(=O)n2/N=C/c2cccc([N+](=O)[O-])c2)cc1 (centres undefined)
IC50 (Plasmodium falciparum [1]): 1.12 µg/mL (≈ 1.83 µM)

CC(=O)Nc1ccc(S(=O)(=O)NC(Cc2ccccc2)c2nc3ccccc3c(=O)n2/N=C/c2cccc(F)c2)cc1 (centres undefined)
IC50 (Dihydrofolate reductase): 49.7 nM | IC50 (Plasmodium falciparum [1]): 0.084 µg/mL (≈ 0.144 µM) | IC50 (Plasmodium falciparum [2]): 4672 ppm | EC50 (Plasmodium falciparum [3]): 2831 ppm | CC50 (Erythrocyte): 58408 ppm | selectivity ratio [4]: 20.6 | IC50 (Vero): 15 µg/mL (≈ 25.7 µM) | selectivity ratio (bovine liver DHFR): 517

CC(=O)Nc1ccc(S(=O)(=O)NC(Cc2ccccc2)c2nc3ccccc3c(=O)n2/N=C/c2ccc(C)cc2)cc1 (centres undefined)
IC50 (Dihydrofolate reductase): 94.9 nM | IC50 (Plasmodium falciparum [1]): 0.067 µg/mL (≈ 0.116 µM) | IC50 (Plasmodium falciparum [2]): 8432 ppm | EC50 (Plasmodium falciparum [3]): 1106 ppm | selectivity ratio [4]: 1670 | IC50 (Vero): 15 µg/mL (≈ 25.9 µM) | selectivity ratio (bovine liver DHFR): 273

CC(=O)Nc1ccc(S(=O)(=O)NC(Cc2ccccc2)c2nc3ccccc3c(=O)n2/N=C/c2ccccc2C)cc1 (centres undefined)
IC50 (Plasmodium falciparum [1]): 1.26 µg/mL (≈ 2.17 µM)

CC(=O)Nc1ccc(S(=O)(=O)NC(Cc2ccccc2)c2nc3ccccc3c(=O)n2/N=C/c2cccc(Br)c2)cc1 (centres undefined)
IC50 (Plasmodium falciparum [1]): 0.92 µg/mL (≈ 1.43 µM)

CC(=O)Nc1ccc(S(=O)(=O)NC(Cc2ccccc2)c2nc3ccccc3c(=O)n2/N=C/c2ccc(Cl)cc2)cc1 (centres undefined)
IC50 (Plasmodium falciparum [1]): 0.84 µg/mL (≈ 1.4 µM)

CC(=O)Nc1ccc(S(=O)(=O)NC(Cc2ccccc2)c2nc3ccccc3c(=O)n2/N=C/c2ccc(Br)cc2)cc1 (centres undefined)
IC50 (Dihydrofolate reductase): 129 nM | IC50 (Plasmodium falciparum [1]): 0.092 µg/mL (≈ 0.143 µM) | IC50 (Plasmodium falciparum [2]): 96.38 ppm | EC50 (Plasmodium falciparum [3]): 115.61 ppm | CC50 (Erythrocyte): 10575 ppm | selectivity ratio [4]: 91.5 | IC50 (Vero): 15 µg/mL (≈ 23.3 µM) | selectivity ratio (bovine liver DHFR): 181

COc1ccccc1/C=N/n1c(C(Cc2ccccc2)NS(=O)(=O)c2ccc(NC(C)=O)cc2)nc2ccccc2c1=O (centres undefined)
IC50 (Plasmodium falciparum [1]): 1.05 µg/mL (≈ 1.77 µM)

CC(=O)Nc1ccc(S(=O)(=O)NC(Cc2ccccc2)c2nc3ccccc3c(=O)n2/N=C/c2ccc(O)cc2)cc1 (centres undefined)
IC50 (Plasmodium falciparum [1]): 0.68 µg/mL (≈ 1.17 µM)

COc1cccc(/C=N/n2c(C(Cc3ccccc3)NS(=O)(=O)c3ccc(NC(C)=O)cc3)nc3ccccc3c2=O)c1 (centres undefined)
IC50 (Plasmodium falciparum [1]): 1.01 µg/mL (≈ 1.7 µM)

COc1ccc(/C=N/n2c(C(Cc3ccccc3)NS(=O)(=O)c3ccc(NC(C)=O)cc3)nc3ccccc3c2=O)cc1 (centres undefined)
IC50 (Plasmodium falciparum [1]): 0.72 µg/mL (≈ 1.21 µM)

CC(=O)Nc1ccc(S(=O)(=O)NC(Cc2ccccc2)c2nc3ccccc3c(=O)n2/N=C/c2ccccc2F)cc1 (centres undefined)
IC50 (Plasmodium falciparum [1]): 1.28 µg/mL (≈ 2.19 µM)

CC(=O)Nc1ccc(S(=O)(=O)NC(Cc2ccccc2)c2nc3ccccc3c(=O)n2/N=C/c2ccccc2)cc1 (centres undefined)
IC50 (Plasmodium falciparum [1]): 1.28 µg/mL (≈ 2.26 µM)

CC(=O)Nc1ccc(S(=O)(=O)NC(Cc2ccccc2)c2nc3ccccc3c(=O)n2/N=C/c2ccccc2Cl)cc1 (centres undefined)
IC50 (Plasmodium falciparum [1]): 0.72 µg/mL (≈ 1.2 µM)

CC(=O)Nc1ccc(S(=O)(=O)NC(Cc2ccccc2)c2nc3ccccc3c(=O)n2/N=C/c2ccccc2[N+](=O)[O-])cc1 (centres undefined)
IC50 (Plasmodium falciparum [1]): 1.52 µg/mL (≈ 2.49 µM)

CC(=O)Nc1ccc(S(=O)(=O)NC(Cc2ccccc2)c2nc3ccccc3c(=O)n2/N=C/c2ccc(F)cc2)cc1 (centres undefined)
IC50 (Dihydrofolate reductase): 61.7 nM | IC50 (Plasmodium falciparum [1]): 0.067 µg/mL (≈ 0.115 µM) | IC50 (Plasmodium falciparum [2]): 3402 ppm | EC50 (Plasmodium falciparum [3]): 1909 ppm | CC50 (Erythrocyte): 29330 ppm | selectivity ratio [4]: 15.4 | IC50 (Vero): 15 µg/mL (≈ 25.7 µM) | selectivity ratio (bovine liver DHFR): 417

CC(=O)Nc1ccc(S(=O)(=O)NC(Cc2ccccc2)c2nc3ccccc3c(=O)n2/N=C/c2ccccc2O)cc1 (centres undefined)
IC50 (Plasmodium falciparum [1]): 0.78 µg/mL (≈ 1.34 µM)

CC(=O)Nc1ccc(S(=O)(=O)NC(Cc2ccccc2)c2nc3ccccc3c(=O)n2/N=C/c2cccc(O)c2)cc1 (centres undefined)
IC50 (Plasmodium falciparum [1]): 1.24 µg/mL (≈ 2.13 µM)

CC(=O)Nc1ccc(S(=O)(=O)NC(Cc2ccccc2)c2nc3ccccc3c(=O)n2/N=C/c2ccc([N+](=O)[O-])cc2)cc1 (centres undefined)
IC50 (Plasmodium falciparum [1]): 0.72 µg/mL (≈ 1.18 µM)

CC(=O)Nc1ccc(S(=O)(=O)NC(Cc2ccccc2)c2nc3ccccc3c(=O)n2/N=C/c2cccc(Cl)c2)cc1 (centres undefined)
IC50 (Dihydrofolate reductase): 81.7 nM | IC50 (Plasmodium falciparum [1]): 0.082 µg/mL (≈ 0.137 µM) | IC50 (Plasmodium falciparum [2]): 524.8 ppm | EC50 (Plasmodium falciparum [3]): 368.97 ppm | CC50 (Erythrocyte): 18850 ppm | selectivity ratio [4]: 51.1 | IC50 (Vero): 15 µg/mL (≈ 25 µM) | selectivity ratio (bovine liver DHFR): 306

CC(=O)Nc1ccc(S(=O)(=O)NC(Cc2ccccc2)c2nc3ccccc3c(=O)n2/N=C/c2ccccc2Br)cc1 (centres undefined)
IC50 (Plasmodium falciparum [1]): 0.7 µg/mL (≈ 1.09 µM)

CC(=O)Nc1ccc(S(=O)(=O)NC(Cc2ccccc2)c2nc3ccccc3c(=O)n2/N=C/c2cccc(C)c2)cc1 (centres undefined)
IC50 (Plasmodium falciparum [1]): 0.78 µg/mL (≈ 1.35 µM)

CCN(CC)CCCC(C)Nc1ccnc2cc(Cl)ccc12 (centres undefined) [CHLOROQUINE]
EC50 (Plasmodium falciparum [3]): 28.97 ppm | CC50 (Erythrocyte): 466.66 ppm

C=C[C@H]1CN2CC[C@H]1C[C@H]2[C@H](O)c1ccnc2ccc(OC)cc12 [QUININE]
IC50 (Plasmodium falciparum [1]): 0.268 µg/mL (≈ 0.826 µM)
